# Patent publication US12162840B2, “Herbicidal compositions” (SYNGENTA PARTICIPATIONS AG, priority 2018, dated 2024)
# System: warm season plant species
# Test: B2 Post-emergence efficacy Test 2, warm season plant species
# Assay type: in vivo
# Conditions: 15 days after application, 0-100 scale, 0=no damage, 100=total kill; for Herbicidal activity, ABUTH: Abutilon theophrasti; for Herbicidal activity, AMARE: Amaranthus retroflexus; for Herbicidal activity, BIDPI: Bidens pilosa; for Herbicidal activity, BRAPL: Brachiaria plantaginea; for Herbicidal activity, DIGSA: Digitaria sanguinalis; for Herbicidal activity, ECHCG: Echinochloa crus galli; for Herbicidal activity, ELEIN: Eleisine indica; for Herbicidal activity, EPHHL: Euphorbia hetrophylla; for Herbicidal activity, GLXMA: Glycine max; for Herbicidal activity, IPOHE: Ipomoea hederacea; for Herbicidal activity, ORYSA: Orysa sativa; for Herbicidal activity, PANMI: Panicum miliaceum; for Herbicidal activity, SETFA: Setaria faberi; for Herbicidal activity, SIDSP: Sida spinosa; for Herbicidal activity, SORVU: Sorghum bicolour; for Herbicidal activity, XANST: Xanthium strumarium; for Herbicidal activity, ZEAMX: Zea mays
# Procedure, shortened: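 Herbicidal effect rated visually 0 (no damage) to 100 (complete kill) at 15 days post-treatment. Post-emergence spray at 12 days used an IF50 formulation with 0.2% v/v Genapol XO80 adjuvant; glasshouse 24/18 or 20/16 °C, 16 h light, 65% humidity.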
smiles,measurement,setting,value
Cc1nn(C)c(=O)c(-c2c(F)ccc(Cl)c2CCc2ccc(F)cc2)c1OC(=O)C(C)C [Compound 1.125],"Herbicidal activity, ABUTH",15 g/Ha,80
same,"Herbicidal activity, ABUTH",30 g/Ha,90
same,"Herbicidal activity, ABUTH",60 g/Ha,90
same,"Herbicidal activity, ABUTH",125 g/Ha,90
same,"Herbicidal activity, ABUTH",250 g/Ha,100
same,"Herbicidal activity, ABUTH",500 g/Ha,100
same,"Herbicidal activity, AMARE",15 g/Ha,80
same,"Herbicidal activity, AMARE",30 g/Ha,90
same,"Herbicidal activity, AMARE",60 g/Ha,90
same,"Herbicidal activity, AMARE",125 g/Ha,100
same,"Herbicidal activity, AMARE",250 g/Ha,100
same,"Herbicidal activity, AMARE",500 g/Ha,100
same,"Herbicidal activity, BIDPI",15 g/Ha,60
same,"Herbicidal activity, BIDPI",30 g/Ha,60
same,"Herbicidal activity, BIDPI",60 g/Ha,70
same,"Herbicidal activity, BIDPI",125 g/Ha,70
same,"Herbicidal activity, BIDPI",250 g/Ha,80
same,"Herbicidal activity, BIDPI",500 g/Ha,100
same,"Herbicidal activity, BRAPL",15 g/Ha,80
same,"Herbicidal activity, BRAPL",60 g/Ha,80
same,"Herbicidal activity, BRAPL",125 g/Ha,80
same,"Herbicidal activity, BRAPL",250 g/Ha,70
same,"Herbicidal activity, BRAPL",500 g/Ha,80
same,"Herbicidal activity, DIGSA",15 g/Ha,0
same,"Herbicidal activity, DIGSA",30 g/Ha,0
same,"Herbicidal activity, DIGSA",60 g/Ha,0
same,"Herbicidal activity, DIGSA",125 g/Ha,10
same,"Herbicidal activity, DIGSA",250 g/Ha,30
same,"Herbicidal activity, DIGSA",500 g/Ha,70
same,"Herbicidal activity, ECHCG",15 g/Ha,70
same,"Herbicidal activity, ECHCG",30 g/Ha,80
same,"Herbicidal activity, ECHCG",60 g/Ha,80
same,"Herbicidal activity, ECHCG",125 g/Ha,80
same,"Herbicidal activity, ECHCG",250 g/Ha,90
same,"Herbicidal activity, ECHCG",500 g/Ha,100
same,"Herbicidal activity, ELEIN",15 g/Ha,40
same,"Herbicidal activity, ELEIN",30 g/Ha,40
same,"Herbicidal activity, ELEIN",60 g/Ha,70
same,"Herbicidal activity, ELEIN",125 g/Ha,70
same,"Herbicidal activity, ELEIN",250 g/Ha,80
same,"Herbicidal activity, ELEIN",500 g/Ha,80
same,"Herbicidal activity, EPHHL",15 g/Ha,90
same,"Herbicidal activity, EPHHL",30 g/Ha,90
same,"Herbicidal activity, EPHHL",60 g/Ha,100
same,"Herbicidal activity, EPHHL",125 g/Ha,100
same,"Herbicidal activity, EPHHL",250 g/Ha,100
same,"Herbicidal activity, EPHHL",500 g/Ha,100
same,"Herbicidal activity, GLXMA",15 g/Ha,40
same,"Herbicidal activity, GLXMA",30 g/Ha,70
same,"Herbicidal activity, GLXMA",60 g/Ha,70
same,"Herbicidal activity, GLXMA",250 g/Ha,90
same,"Herbicidal activity, GLXMA",500 g/Ha,90
same,"Herbicidal activity, IPOHE",15 g/Ha,90
same,"Herbicidal activity, IPOHE",30 g/Ha,100
same,"Herbicidal activity, IPOHE",60 g/Ha,100
same,"Herbicidal activity, IPOHE",125 g/Ha,100
same,"Herbicidal activity, IPOHE",250 g/Ha,100
same,"Herbicidal activity, IPOHE",500 g/Ha,100
same,"Herbicidal activity, ORYSA",15 g/Ha,0
same,"Herbicidal activity, ORYSA",30 g/Ha,0
same,"Herbicidal activity, ORYSA",60 g/Ha,0
same,"Herbicidal activity, ORYSA",125 g/Ha,0
same,"Herbicidal activity, ORYSA",250 g/Ha,0
same,"Herbicidal activity, ORYSA",500 g/Ha,0
same,"Herbicidal activity, PANMI",15 g/Ha,20
same,"Herbicidal activity, PANMI",30 g/Ha,30
same,"Herbicidal activity, PANMI",60 g/Ha,50
same,"Herbicidal activity, PANMI",125 g/Ha,50
same,"Herbicidal activity, PANMI",250 g/Ha,70
same,"Herbicidal activity, PANMI",500 g/Ha,80
same,"Herbicidal activity, SETFA",15 g/Ha,0
same,"Herbicidal activity, SETFA",30 g/Ha,10
same,"Herbicidal activity, SETFA",60 g/Ha,20
same,"Herbicidal activity, SETFA",125 g/Ha,20
same,"Herbicidal activity, SETFA",250 g/Ha,20
same,"Herbicidal activity, SETFA",500 g/Ha,100
same,"Herbicidal activity, SIDSP",60 g/Ha,80
same,"Herbicidal activity, SIDSP",125 g/Ha,90
same,"Herbicidal activity, SIDSP",250 g/Ha,90
same,"Herbicidal activity, SIDSP",500 g/Ha,100
same,"Herbicidal activity, SORVU",15 g/Ha,0
same,"Herbicidal activity, SORVU",30 g/Ha,50
same,"Herbicidal activity, SORVU",60 g/Ha,50
same,"Herbicidal activity, SORVU",125 g/Ha,70
same,"Herbicidal activity, SORVU",250 g/Ha,80
same,"Herbicidal activity, SORVU",500 g/Ha,90
same,"Herbicidal activity, XANST",30 g/Ha,90
same,"Herbicidal activity, XANST",60 g/Ha,90
same,"Herbicidal activity, XANST",125 g/Ha,90
same,"Herbicidal activity, XANST",250 g/Ha,90
same,"Herbicidal activity, XANST",500 g/Ha,100
same,"Herbicidal activity, ZEAMX",15 g/Ha,0
same,"Herbicidal activity, ZEAMX",30 g/Ha,20
same,"Herbicidal activity, ZEAMX",60 g/Ha,30
same,"Herbicidal activity, ZEAMX",125 g/Ha,20
same,"Herbicidal activity, ZEAMX",250 g/Ha,40
same,"Herbicidal activity, ZEAMX",500 g/Ha,70
